# From patent publication US12521437B2 (Synthorx, Inc., priority 2019, dated 2026)
# Columns and labels:
# Treg cells = assay: pSTAT5 signaling in human LRS-derived PBMC samples, Treg cells (flow cytometry); type: cell-based; settings: for EC50 for pSTAT5 signaling, Treg cells: Table 13 (Example 11); for Fold increase in Treg EC50 vs native IL-2: compared to native IL-2 run in each individual experiment
# Description: (§1) These studies were performed at PrimityBio LLC (Fremont, CA). […] Staining panel for flow cytometry study of LRS-derived PBMC samples include markers for Effector T cells (Teff: CD3+, CD4+, CD8+, CD127+), NK cells (CD3-, CD16+), and Regulatory T cells (Treg: CD3+, CD4+, CD8-, IL-2Rα+, CD127-1).
# (§2) These studies were performed at PrimityBio LLC (Fremont, CA). […] Staining panel for flow cytometry study of LRS-derived PBMC samples include markers CD4, CD4+ memory central, CD4+ memory effect, CD4+ memory T cells, CD4+ Naive T cells, CD4+ T cells, CD8, CD8+ memory central, CD8+ memory effect, CD8+ memory T cells, CD8+ Naive T cells, CD8+ T cells, NK cells, and T regulatory cells.
# (§3) Conjugates of Table 13 were synthesized by modification of SEQ NO. 1. These studies were performed at PrimityBio LLC (Fremont, CA).
# CD8+ T cells = assay: pSTAT5 signaling in human LRS-derived PBMC samples, CD8+ T cells (flow cytometry); type: cell-based; settings: Table 13 (Example 11)
# Description: as §1, §2, §3
# CTLL-2 = CTLL-2 proliferation; type: cell-based, mouse; settings: Table 13 (Example 11)
# NK cells = assay: pSTAT5 signaling in human LRS-derived PBMC samples, NK cells (flow cytometry); type: cell-based; settings: Table 13 (Example 11)
# Description: as §1, §3
# [1] = human transferrin; cited from earlier work
Substance,"EC50 for pSTAT5 signaling, Treg cells (Treg cells)",Fold increase in Treg EC50 vs native IL-2 (Treg cells),CD8+/Treg ratio (CD8+ T cells),"EC50 for pSTAT5 signaling, CD8+ Tcells (CD8+ T cells)",EC50 CTLL-2 proliferation (CTLL-2),"EC50 for pSTAT5 signaling, NK cells (NK cells)",half-life [1]
N88R/D109_30kD: IL-2 variant with N88R substitution and 30 kD PEG at D109,175805 pg/ml,3663,71,12503386 pg/ml,59.577 ng/mL,2780819 pg/ml,–
N88R: IL-2 variant with N88R substitution [reference compound],11082 pg/ml,148,1356,15025734 pg/ml,0.363 ng/mL,2312847 pg/ml,–
V91K: IL-2 variant with V91K substitution [reference compound],142 pg/ml,3,720,102255 pg/ml,0.0995 ng/mL,20537 pg/ml,–
human transferrin: 679 amino acid polypeptide that is about 80 kDa in size and comprises two Fe^3+ binding sites,–,–,–,–,–,–,170 to 288 h
